From publication PMC11855827, “High-Throughput Screening of Five Compound Libraries for Anthelmintic Activity and Toxicity Leads to the Discovery of Two Flavonoid Compounds” (International Journal of Molecular Sciences, 2025) come the findings set out here.

For the test, the system named is C. elegans. The test is described as follows: microbe, parasite or virus in culture. As to conditions: Caenorhabditis elegans.
Setting [1] is: 0 h, read-out: Percentage of motility inhibition 0 h, Table S2, C. elegans SS assay, 110 μM, 0 h, averages of 4 data points.
[2] abbreviates: 24 h, read-out: Percentage of motility inhibition 24 h, Table S2, C. elegans SS assay, 110 μM, 24 h, averages of 4 data points.
[3] abbreviates: 0 h, read-out: Percentage of motility inhibition 0 h.
Setting [4] is: 24 h, read-out: Percentage of motility inhibition 24 h.

The structures appear in SMILES notation. Where two headings read alike, the source gives them in different places.

Regarding `COC[C@@]12CC[C@H](OC)[C@]34C(C([C@H](OC)[C@H]13)[C@]1(OC(C)=O)[C@H]3[C@@H](OC(=O)c5ccccc5)[C@](O)(C[C@H]34)[C@@H](OC)[C@@H]1O)N(C)C2` [Hypaconitine], the inhibition at 110 µM came to 0% under setting [1] and 6% under setting [2].

Take `O=C1CN(/N=C/c2ccc([N+](=O)[O-])o2)C(=O)N1` [Nitrofurantoin]: the inhibition at 110 µM by setting is: under setting [1], 24%; under setting [2], 4%.

For the molecule `CN1C(=O)C(O)CC1c1cccnc1` (stereo not drawn) [Hydroxycotinine], the inhibition at 110 µM is, setting by setting: under setting [1], 13%; under setting [2], 0%.

In the case of `O=C1C=CC[C@@H]2[C@H]3CCC[N+]4([O-])CCC[C@@H](CN12)[C@@H]34` (stereo partly drawn) [Oxysophocarpine], the inhibition at 110 µM worked out at 34% under setting [1] and 0% under setting [2].

For the molecule `NC(=O)CC[C@H](N)C(=O)O` [L-Glutamine], the inhibition at 110 µM by setting is: under setting [1], 3%; under setting [2], 0%.

As for `c1cncc(C2=NCCC2)c1` [Myosmine], the inhibition at 110 µM came to 18% under setting [1] and 24% under setting [2].

Turning to `O=c1cc(-c2ccc(O)cc2)oc2c([C@@H]3O[C@H](CO)[C@@H](O)[C@H](O)[C@H]3O)c(O)cc(O)c12` [Vitexin], the inhibition at 110 µM by setting is: under setting [1], 39%; under setting [2], 0%.

Take `CCCSc1ccc2nc(NC(=O)OC)[nH]c2c1` [Albendazole]: the inhibition at 110 µM runs as follows: under setting [3], 17%; under setting [4], 6%.

With `COc1c(O)cc2occ(-c3ccc(O)cc3)c(=O)c2c1O` [Tectorigenin], the inhibition at 110 µM reads like this: under setting [3], 0%; under setting [4], 0%.

As to `C=C(C)[C@@H]1CC=C2C(=CC[C@]3(C)[C@@H]([C@@H](CCC=C(C)C)C(=O)O)[C@H](O)C[C@@]23C)[C@@]1(C)CCC(=O)O` [Poricoic acid B], the inhibition at 110 µM under setting [1] stood at 14% and the inhibition at 110 µM under setting [2] turned out to be 0%.

On to `C[C@H]1CC[C@]2(NC1)O[C@H]1C[C@H]3[C@@H]4CC[C@H]5C[C@@H](O)CC[C@]5(C)[C@H]4CC[C@]3(C)[C@H]1[C@@H]2C` [Tomatidine], for which the inhibition at 110 µM was found to be 6% under setting [1] and 0% under setting [2].

Turning to `N=C(N)NCCC[C@H](N)C(=O)O` [L-Arginine], the inhibition at 110 µM under setting [3] was found to be 0% and the inhibition at 110 µM under setting [4] was found to be 0%.

In the case of `C=C1C[C@@]23CC[C@H]4[C@@](C)(CCC[C@@]4(C)C(=O)O[C@@H]4O[C@H](CO)[C@@H](O)[C@H](O)[C@H]4O)[C@@H]2CC[C@]1(O[C@@H]1O[C@H](CO)[C@@H](O)[C@H](O)[C@H]1O[C@@H]1O[C@@H](C)[C@H](O)[C@@H](O)[C@H]1O)C3` [Dulcoside A], the inhibition at 110 µM reads like this: under setting [1], 0%; under setting [2], 11%.

On to `c1ccc(-c2ccc(C(c3ccccc3)n3ccnc3)cc2)cc1` (stereo not drawn) [Bifonazole], for which the inhibition at 110 µM runs as follows: under setting [1], 25%; under setting [2], 31%.

With `CN(C)CCc1ccc(O)cc1` [Hordenine], the inhibition at 110 µM under setting [1] came out at 28% and the inhibition at 110 µM under setting [2] came out at 10%.

Turning to `C[C@]1(OC(=O)/C=C/c2ccccc2)C[C@@H](O)[C@]2(O)C=CO[C@@H](O[C@@H]3O[C@H](CO)[C@@H](O)[C@H](O)[C@H]3O)[C@@H]21` [Harpagoside], the inhibition at 110 µM is 9% under setting [1] and 30% under setting [2].

In the case of `O=C(Nc1ncc([N+](=O)[O-])s1)c1ccccc1O` [Tizoxanide], the inhibition at 110 µM reads like this: under setting [1], 40%; under setting [2], 53%.

Regarding `Cc1oc(=O)oc1COC(=O)C1=C([C@H]2CCCO2)S[C@@H]2[C@@H]([C@@H](C)O)C(=O)N12` [Faropenem daloxate], the inhibition at 110 µM amounted to 5% under setting [1] and 17% under setting [2].

In the case of `Cc1cc2nc3c(=O)[nH]c(=O)nc-3n(C[C@H](O)[C@H](O)[C@H](O)CO)c2cc1C` [Riboflavin], the inhibition at 110 µM by setting is: under setting [1], 3%; under setting [2], 6%.

Regarding `COC(=O)C1=CC[C@@]23CC[C@@H]([C@@](C)(/C=C/C=C(\C)C(=O)O)OC2=O)[C@@]3(OC(C)=O)CC1` [Pseudolaric Acid B], the inhibition at 110 µM is, setting by setting: under setting [3], 0%; under setting [4], 9%.

Regarding `C[C@H](CCC(=O)O)[C@H]1CC[C@H]2[C@@H]3CC[C@@H]4C[C@H](O)CC[C@]4(C)[C@H]3C[C@H](O)[C@]12C` [Deoxycholic acid], the inhibition at 110 µM runs as follows: under setting [1], 29%; under setting [2], 12%.

As to `C[C@@H]1O[C@@H](OC[C@H]2O[C@@H](Oc3cc(O)c4c(=O)cc(-c5ccc(O)cc5)oc4c3)[C@H](O)[C@@H](O)[C@@H]2O)[C@H](O)[C@H](O)[C@H]1O` [Isorhoifolin], the inhibition at 110 µM turned out to be 0% under setting [1] and 20% under setting [2].

On to `C=CC1(C)Cc2occ(C)c2C(=O)C1C(=C)C` (stereo not drawn) [Curzerenone], for which the inhibition at 110 µM by setting is: under setting [1], 10%; under setting [2], 9%.

Take `O=C(O)/C=C/c1ccc(O)c(O)c1` [Caffeic acid]: the inhibition at 110 µM by setting is: under setting [1], 20%; under setting [2], 13%.

With `O=C(CCc1ccc(O)c(O)c1)NCCCNCCCCNCCCNC(=O)CCc1ccc(O)c(O)c1` [Kukoamine A], the inhibition at 110 µM runs as follows: under setting [1], 0%; under setting [2], 32%.

Turning to `C[C@@H]1CC[C@@]2(NC1)O[C@H]1C[C@H]3[C@@H]4CC=C5C[C@@H](O[C@@H]6O[C@H](CO)[C@H](O)[C@H](O[C@@H]7O[C@H](CO)[C@@H](O)[C@H](O)[C@H]7O)[C@H]6O[C@@H]6O[C@@H](C)[C@H](O)[C@@H](O)[C@H]6O)CC[C@]5(C)[C@H]4CC[C@]3(C)[C@H]1[C@@H]2C` [Solasonine], the inhibition at 110 µM is, setting by setting: under setting [1], 0%; under setting [2], 0%.

Regarding `CC[C@]12CCCN3CCc4c(n(c5ccccc45)C(=O)C1)[C@@H]32` [Vinburnine], the inhibition at 110 µM under setting [1] was 0%.

On to `OCc1ccc(O[C@@H]2O[C@H](CO)[C@@H](O)[C@H](O)[C@H]2O)cc1` [Gastrodin], for which the inhibition at 110 µM was found to be 4% under setting [3] and 8% under setting [4].

Regarding `C=C1C(=O)O[C@H]2[C@H]1CC/C(C)=C/CC[C@@]1(C)O[C@@H]21` [Parthenolide], the inhibition at 110 µM by setting is: under setting [1], 6%; under setting [2], 26%.

Regarding `CCCCC[C@H](O)CC(=O)CCc1ccc(O)c(OC)c1` [[6]‐Gingerol], the inhibition at 110 µM came to 1% under setting [1] and 10% under setting [2].

Take `C=C[C@H]1C[N@@]2CC[C@H]1C[C@@H]2[C@@H](O)c1ccnc2ccccc12` [Cinchonine]: the inhibition at 110 µM runs as follows: under setting [1], 6%; under setting [2], 0%.

On to `O=C(OCc1ccccc1)c1ccccc1` [Benzyl benzoate], for which the inhibition at 110 µM runs as follows: under setting [1], 35%; under setting [2], 36%.

`CC(=O)O[C@@H]1C[C@H]2C(C)(C)C(=O)C=C[C@]2(C)[C@H]2CC[C@@]3(C)[C@H](c4ccoc4)C(=O)[C@H]4O[C@]43[C@@]21C` [Epoxyazadiradione]: the inhibition at 110 µM is, setting by setting: under setting [1], 19%; under setting [2], 47%.

In the case of `CC(C)C[C@H](N)C(=O)O` [L-Leucine], the inhibition at 110 µM under setting [1] came out at 4% and the inhibition at 110 µM under setting [2] stood at 11%.

On to `CC(C)CNC(=O)/C=C/C=C/c1ccc2c(c1)OCO2` [Piperlonguminine], for which the inhibition at 110 µM came to 34% under setting [1] and 22% under setting [2].

Consider `CN1CCN(c2c(F)cc3c(=O)c(C(=O)O)cn4c3c2OCN4C)CC1` [Marbofloxacin], for which the inhibition at 110 µM is 23% under setting [1] and 9% under setting [2].

`CC1(C)CC[C@]2(CO)CC[C@]3(C)C(=CC[C@@H]4[C@@]5(C)CC[C@H](O)C(C)(C)[C@@H]5CC[C@]43C)[C@@H]2C1` [Erythrodiol]: the inhibition at 110 µM by setting is: under setting [1], 11%; under setting [2], 68%.

Regarding `O=C(Nc1cc(Cl)cc(Cl)c1O)c1c(O)c(Cl)cc(Cl)c1Cl` [Oxyclozanide, reference compound], the inhibition at 110 µM reads like this: (0 h, read-out: Inhibition (%) 110 μM (0 h), C. elegans L4 motility, 110 μM, 0 h, mean ± SD of four experiments) 10 ± 9%; (24 h, read-out: Inhibition (%) 110 μM (24 h), C. elegans L4 motility, 110 μM, 24 h, mean ± SD of four experiments) 93 ± 5%.

For `C=C1C/C(=C/C)C(=O)O[C@@H]2CCN3CC=C(COC(=O)[C@]1(C)O)[C@H]23` [Seneciphylline], the inhibition at 110 µM is 0% under setting [1] and 1% under setting [2].

Regarding `O=c1[nH]c(=O)n([C@H]2C[C@H](O)[C@@H](CO)O2)cc1I` [Idoxuridine], the inhibition at 110 µM under setting [1] turned out to be 38% and the inhibition at 110 µM under setting [2] came out at 11%.

`O=C1c2c(O)cc(O)cc2O[C@H](c2cc(O)c(O)c(O)c2)[C@H]1O` [Dihydromyricetin]: the inhibition at 110 µM reads like this: under setting [1], 33%; under setting [2], 16%.

With `COC(=O)N/N=C/c1c[n+]([O-])c2ccccc2[n+]1[O-]` [Carbadox], the inhibition at 110 µM by setting is: under setting [1], 4%; under setting [2], 0%.

On to `C=C(CC[C@@H](C(=O)O)[C@H]1CC[C@@]2(C)C3=C(CC[C@]12C)[C@@]1(C)CC[C@H](O)C(C)(C)[C@@H]1CC3)C(C)C` [Eburicoic acid], for which the inhibition at 110 µM is, setting by setting: under setting [1], 27%; under setting [2], 56%.

Turning to `CN(C(=O)CN(CCO)CC(=O)N(C)C(C)(C)Cc1ccccc1)C(C)(C)Cc1ccccc1` [Oxethazaine], the inhibition at 110 µM turned out to be 44% under setting [1] and 25% under setting [2].

For the molecule `C=C[C@]1(C)C[C@@H](OC(=O)CO)[C@]2(C)[C@H](C)CC[C@]3(CCC(=O)[C@H]32)[C@@H](C)[C@@H]1O` [Pleuromutilin], the inhibition at 110 µM by setting is: under setting [1], 33%; under setting [2], 10%.

On to `Cn1c(=O)c2c(ncn2CC(=O)O)n(C)c1=O` [Acefylline], for which the inhibition at 110 µM was found to be 0% under setting [1] and 1% under setting [2].

Take `C[C@@H]1CCO[C@H]2Cn3cc(C(=O)NCc4ccc(F)cc4F)c(=O)c(O)c3C(=O)N12` [Dolutegravir]: the inhibition at 110 µM was found to be 25% under setting [1] and 3% under setting [2].
